This note sets out measurements from ChEMBL document CHEMBL1130331, “Synthesis and hepatoprotective effects of soyasapogenol B derivatives” (1997).

In test [1] the test system is HepG2. Briefly: Tested in vitro for hepatoprotective effect of 10 ug/ml of compound on cell growth and lesions in Hep G2 cells treated with aflatoxin B1 (10 e -5 M). In kind it is functional, Homo sapiens.
In test [2] the test system is HepG2. The test is described as follows: Tested in vitro for hepatoprotective effect of 20 ug/ml of compound on cell growth and lesions in Hep G2 cells treated with aflatoxin B1 (10 e -5 M). Type of test: functional, Homo sapiens.

For the compound `CC1(C)C[C@@H](O)[C@]2(C)CC[C@]3(C)C(=CCC4[C@@]5(C)CC[C@H](O)[C@](C)(CO)C5CC[C@]43C)[C@@H]2C1` (stereo partly drawn), the Protection in the test on HepG2 [1] is listed as 14%. On the same count and under the same terms, for `COC[C@]1(C)C2CC[C@]3(C)C(CC=C4[C@@H]5CC(C)(C)C[C@@H](O)[C@]5(C)CC[C@]43C)[C@@]2(C)CC[C@@H]1O` (stereo partly drawn) the value was 48%; for `CO[C@H]1CC[C@@]2(C)C(CC[C@]3(C)C2CC=C2[C@@H]4CC(C)(C)C[C@@H](O)[C@]4(C)CC[C@]23C)[C@@]1(C)CO` (stereo partly drawn), 2%.

In the test on HepG2 [1], `CC1(C)C[C@@H](O)[C@]2(C)CC[C@]3(C)C(=CCC4[C@@]5(C)CC[C@H](O)[C@](C)(C=O)C5CC[C@]43C)[C@@H]2C1` (stereo partly drawn) registered a Protection of 32%. Still for that read-out and setting: to `CC(=O)OC[C@]1(C)C2CC[C@]3(C)C(CC=C4[C@@H]5CC(C)(C)C[C@@H](O)[C@]5(C)CC[C@]43C)[C@@]2(C)CC[C@@H]1O` (stereo partly drawn) belongs 45%.

In the case of `CO[C@@H]1CC(C)(C)C[C@H]2C3=CCC4[C@@]5(C)CC[C@H](O)[C@](C)(CO)C5CC[C@@]4(C)[C@]3(C)CC[C@@]12C` (stereo partly drawn), the Protection with HepG2 [1] came out at 9%. With `CC1(C)C[C@@H](O)[C@]2(C)CC[C@]3(C)C(=CCC4[C@@]5(C)CCC[C@](C)(CO)C5CC[C@]43C)[C@@H]2C1` (stereo partly drawn), in the test with HepG2 [1], the Protection was 0%. On the same count and under the same terms, to `CC1(C)C[C@@H](O)[C@]2(C)CC[C@]3(C)C(=CCC4[C@@]5(C)CC[C@H](O)[C@](C)(C(=O)O)C5CC[C@]43C)[C@@H]2C1` (stereo partly drawn) belongs 44%; to `CC1(C)C[C@@H](O)[C@]2(C)CC[C@]3(C)C(=CCC4[C@@]5(C)CC[C@H](O)C(C)(C)C5CC[C@]43C)[C@@H]2C1` (stereo partly drawn), 19%; to `CC1(C)CC[C@]2(C)CC[C@]3(C)C(=CCC4[C@@]5(C)CC[C@H](O)[C@](C)(CO)C5CC[C@]43C)[C@@H]2C1` (stereo partly drawn), 33%. The same measure, in the same setting: to `CC(=O)O[C@@H]1CC(C)(C)C[C@H]2C3=CCC4[C@@]5(C)CC[C@H](O)[C@](C)(CO)C5CC[C@@]4(C)[C@]3(C)CC[C@@]12C` (stereo partly drawn) belongs 11%; to `CC(=O)O[C@H]1CC[C@@]2(C)C(CC[C@]3(C)C2CC=C2[C@@H]4CC(C)(C)C[C@@H](O)[C@]4(C)CC[C@]23C)[C@@]1(C)CO` (stereo partly drawn), 0%. Consider `CC1(C)[C@@H](O[C@H]2O[C@H](C(=O)O)[C@@H](O)[C@H](O)[C@H]2O[C@@H]2O[C@H](C(=O)O)[C@@H](O)[C@H](O)[C@H]2O)CC[C@]2(C)[C@H]3C(=O)C=C4[C@@H]5C[C@@](C)(C(=O)O)CC[C@]5(C)CC[C@@]4(C)[C@]3(C)CC[C@@H]12` [GLYCYRRHIZIN], for which the Protection with HepG2 [2] is listed as 15%.
